Like-named read-outs stand apart in the source and are kept apart here.
Assays:
[1] = test system: phosphorylated AKT Ser473 (pAKT S473), mTORC2 activity, PC3 cells; assay: mTOR target engagement assay, immunofluorescent cell-based, pAKT S473 readout (mTORC2 activity)
Method in brief: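 After blocking, cells were stained overnight at 4 °C with anti-pAKT S473 antibody, then a fluorescent secondary; inhibition was read as reduced fluorescence intensity.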

[2] = test system: phosphorylated 4E-BP1 Thr37/46 (p4E-BP1 Thr37/46), mTORC1 activity, PC3 cells; assay: mTOR target engagement assay, immunofluorescent cell-based, p4E-BP1 Thr37/46 readout (mTORC1 activity); conditions: read-out: p4E-BP1 Thr37/46 IC50
Method in brief: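 Cell-based immunofluorescence in PC3 cells: serially diluted compounds (0.25% DMSO, 5% FBS) applied for ninety minutes at 37° C before fixation and overnight 4° C staining of p4E-BP1 Thr37/46. Untreated DMSO wells set maximal phosphorylation; IC50 obtained by logistic fitting.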

[3] = Homo sapiens, PC-3, Table 3-1, PC3 cells
[4] = Homo sapiens, PC-3, PC3 cells, compound treatment ninety minutes at 37° C.

**Q.** Which results are given for `CS(=O)(=O)c1c([C@@H]2C[C@H]3CC[C@@H](C2)N3C(=O)c2cnn[nH]2)nc2c(-c3ccc(C4(O)CCC4)nc3)cnn2c1N` [Compound 7.30, ((1R,3s,5S)-3-(7-amino-3-(6-(1-hydroxycyclobutyl)pyridin-3-yl)-6-(methylsulfonyl)pyrazolo[1,5-a]pyrimidin-5-yl)-8-azabicyclo[3.2.1]octan-8-yl)(1H-1,2,3-triazol-5-yl)methanone]?
**A.** IC50 ([1]; Table 7-2, PC3 cells): 0.1 to 1 µM; IC50 ([2]; Table 7-2, PC3 cells): 0.1 to 1 µM

**Q.** What does the source list for `C[C@H](O)C(=O)N1[C@@H]2CC[C@H]1C[C@H](c1nc3c(-c4ccc(-c5ccccc5)nc4)cnn3c(N)c1S(C)(=O)=O)C2` [Compound 3.27]?
**A.** IC50 [1, 3]: 0.1 to 1 µM; IC50 [2, 3]: 0.1 to 1 µM

**Q.** Which IC50 [1, 4] does the source give for `CCc1c([C@@H]2C[C@H]3CC[C@@H](C2)N3C(=O)c2nnc[nH]2)nc2c(-c3ccc(-c4ccccc4)nc3)cnn2c1N` [Compound 5.8, ((1R,3s,5S)-3-(7-amino-6-ethyl-3-(6-phenylpyridin-3-yl)pyrazolo[1,5-a]pyrimidin-5-yl)-8-azabicyclo[3.2.1]octan-8-yl)(4H-1,2,4-triazol-3-yl)methanone] here?
**A.** Its IC50 is 0.001 to 0.1 µM.

**Q.** What about the IC50 [2, 4] of the same compound?
**A.** Its IC50 is 0.001 to 0.1 µM.

**Q.** For `COc1ccc(-c2ncc(-c3cnn4c(N)c(S(C)(=O)=O)c([C@@H]5C[C@H]6CC[C@@H](C5)N6C(=O)c5nnc[nH]5)nc34)cn2)cc1F` [Compound 3.147, ((1R,3s,5S)-3-(7-amino-3-(2-(3-fluoro-4-methoxyphenyl)pyrimidin-5-yl)-6-(methylsulfonyl)pyrazolo[1,5-a]pyrimidin-5-yl)-8-azabicyclo[3.2.1]octan-8-yl)(4H-1,2,4-triazol-3-yl)methanone], which IC50 [1, 3] is on record?
**A.** Its IC50 is 1 to 10 µM.

**Q.** What about the IC50 [2, 3] of the same compound?
**A.** The IC50 was 1 to 10 µM.

**Q.** What does the source list for `CCOc1ccc(-c2ccc(-c3cnn4c(N)c(C5CC5)c([C@@H]5C[C@H]6CC[C@@H](C5)N6C(=O)c5nnc[nH]5)nc34)cn2)cc1` [Compound 4.13, ((1R,3s,5S)-3-(7-amino-6-cyclopropyl-3-(6-(4-ethoxyphenyl)pyridin-3-yl)pyrazolo[1,5-a]pyrimidin-5-yl)-8-azabicyclo[3.2.1]octan-8-yl)(4H-1,2,4-triazol-3-yl)methanone]?
**A.** IC50 [1, 4]: 0.1 to 1 µM; IC50 [2, 4]: 0.1 to 1 µM

**Q.** With `CC(C)(O)c1ncc(-c2cnn3c(N)c(S(C)(=O)=O)c([C@@H]4C[C@H]5CC[C@@H](C4)N5C(=O)c4nnc[nH]4)nc23)cn1` [Compound 3.152, ((1R,3s,5S)-3-(7-amino-3-(2-(2-hydroxypropan-2-yl)pyimidin-5-yl)-6-(methylsulfonyl)pyrazolo[1,5-a]pyrimidin-5-yl)-8-azabicyclo[3.2.1]octan-8-yl)(4H-1,2,4-triazol-3-yl)methanone] as the compound, how does the IC50 [1, 3] read?
**A.** The IC50 was 1 to 10 µM.

**Q.** What about the IC50 [2, 3] of the same compound?
**A.** The IC50 was 1 to 10 µM.

**Q.** Which results are given for `CC(=O)c1c([C@@H]2C[C@H]3CC[C@@H](C2)N3C(=O)c2cnccc2O)nc2c(-c3ccc(-c4ccccc4)nc3)cnn2c1N` [Compound 1.1.51, 1-(7-amino-5-((1R,3s,5S)-8-(4-hydroxynicotinoyl)-8-azabicyclo[3.2.1]octan-3-yl)-3-(6-phenylpyridin-3-yl)pyrazolo[1,5-a]pyrimidin-6-yl)ethanone]?
**A.** IC50 [1, 4]: 0.1 to 1 µM; IC50 [2, 4]: 0.1 to 1 µM

**Q.** For `CS(=O)(=O)c1c([C@@H]2C[C@H]3CC[C@@H](C2)N3C(=O)c2nnc[nH]2)nc2c(-c3cccnc3)cnn2c1N` [Compound 3.69, ((1R,3s,5S)-3-(7-amino-6-(methylsulfonyl)-3-(pyridin-3-yl)pyrazolo[1,5-a]pyrimidin-5-yl)-8-azabicyclo[3.2.1]octan-8-yl)(4H-1,2,4-triazol-3-yl)methanone], which IC50 ([1]; Table 3-1, PC3 cells) is on record?
**A.** The IC50 was 0.1 to 1 µM.

**Q.** And the IC50 ([2]; Table 3-1, PC3 cells)?
**A.** Its IC50 is 0.1 to 1 µM.

**Q.** Which IC50 [1, 3] does the source give for `CS(=O)(=O)c1c(C2CC3CCC(C2)N3C(=O)c2nnc[nH]2)nc2c(-c3ccc(-c4ccccc4)[n+]([O-])c3)cnn2c1N` [Compound 3.6, 5-(5-((1R,3s,5S)-8-(1H-1,2,4-triazole-3-carbonyl)-8-azabicyclo[3.2.1]octan-3-yl)-7-amino-6-(methylsulfonyl)pyrazolo[1,5-a]pyrimidin-3-yl)-2-phenylpyridine 1-oxide] here?
**A.** The IC50 was 0.1 to 1 µM.

**Q.** And the IC50 [2, 3]?
**A.** The IC50 was 0.1 to 1 µM.

From patent publication US9227971B2, “Pyrazolo[1,5-a]pyrimidine compounds as mTOR inhibitors” (Merck Sharp & Dohme Corp., priority 2010, dated 2016)
